In US11110092B2, “Methods of treating hematologic cancers” (BIOCRYST PHARMACEUTICALS, INC, priority 2007, dated 2021):
Where two headings read alike, the source gives them in different places. Peptide text beside a SMILES is read from it. * marks the point of attachment. Cbz = O=C(OCc1ccccc1)*; CH2F = FC*

Legend:
[1] = test system: primary leukemic cells from patients with CLL; set-up: cell death: dose or concentration left out as unconfirmed
Method: The present in vitro study was carried out in primary leukemic lymphocytes from 43 patients diagnosed with CLL according to the World Health Organization classification. Informed consent was obtained from each patient.
Peripheral blood mononuclear cells (PBMCs) cells were isolated by Ficoll/Hypaque sedimentation (Seromed, Berlin, Germany). Cells were either used directly or cryopreserved in liquid nitrogen in the presence of 10% dimethyl sulfoxide and 90% heat-inactivated fetal bovine serum (FBS, Gibco Paisley, Scotland, UK).
Cells were incubated for different time points with forodesine at doses ranging from 1 to 12 μM in the presence or absence of 10-20-30 μM of deoxyguanosine (dGuo). When indicated, cells were pre-incubated for 1 hour with the pan-caspase inhibitor z-VAD.fmk (benzyloxy-carbonyl-Val-Ala-Asp-fluoro-methylketone; Bachem, Bubendorf, Switzerland) at 80 the caspase-8 inhibitor z-IETD.fmk at 50 μM (Z-Ile-Glu(OMe)Thr-DL-Asp (OMe)-fluoromethylketone, Bachem), 2′-deoxycytidine (5-10-20 μM, Sigma), N-acetyl-L-cysteine (NAC, 25 mM), Tiron (5 mM, 4,5-Dihydroxy-1,3-Benzene-disulfonic acid, Sigma) or GSH (2 mM; Sigma). […] Cell viability and apoptosis induction was analyzed by changes in cell complexity by means of FSC/SSC, quantification of phosphatidyl serine (PS) exposure by double staining with Annexin-V conjugated to fluorescein isothiocyanate (FITC) and propidium iodide (PI) (BenderMedsystems, Vienna, Austria). For the analysis of apoptosis in the CD3^+ and CD19^− populations, PBMCs were labeled simultaneously with anti-CD3-FITC (Immunotech, Marseille, France), anti-CD19-PE (Becton Dickinson) and Annexin-V-APC. Cell viability and cytotoxicity were plotted as percentage with respect to control cells. Loss of mitochondrial transmembrane potential (ΔΨm) were evaluated by staining cells with 20 nM of DiOC6 (3,3-diexyloxacarbocyanine iodide, Molecular Probes) and reactive oxygen species (ROS) production was determined by staining cells with 2 μM dihydroethidine (DHE; Molecular Probes) and flow cytometry analysis. […] In brief, cells were washed once in PBS and fixed in paraformaldehyde 4%, permeabilized with 0.1% saponin and 0.5% bovine serum albumin (BSA). […] After several washes in permeabilization buffer, cells were incubated with a secondary goat anti-mouse FITC (DAKO) or goat anti-rabbit FITC (Supertechs) antibody and washed again with permeabilization buffer. Ten thousand stained cells per sample were then analyzed by flow cytometry.

[2] = test system: mitochondrial transmembrane potential in CLL cells; assay: Loss of mitochondrial transmembrane potential (DiOC6 staining, flow cytometry); format: cell-based, human; details: for effect of pre-incubation on Δψm loss induced by forodesine: ROS scavenger pre-incubation
Method: (§1) Cells were incubated for different time points with forodesine at doses ranging from 1 to 12 μM in the presence or absence of 10-20-30 μM of deoxyguanosine (dGuo). When indicated, cells were pre-incubated for 1 hour with the pan-caspase inhibitor z-VAD.fmk (benzyloxy-carbonyl-Val-Ala-Asp-fluoro-methylketone; Bachem, Bubendorf, Switzerland) at 80 the caspase-8 inhibitor z-IETD.fmk at 50 μM (Z-Ile-Glu(OMe)Thr-DL-Asp (OMe)-fluoromethylketone, Bachem), 2′-deoxycytidine (5-10-20 μM, Sigma), N-acetyl-L-cysteine (NAC, 25 mM), Tiron (5 mM, 4,5-Dihydroxy-1,3-Benzene-disulfonic acid, Sigma) or GSH (2 mM; Sigma). […] Loss of mitochondrial transmembrane potential (ΔΨm) were evaluated by staining cells with 20 nM of DiOC6 (3,3-diexyloxacarbocyanine iodide, Molecular Probes) and reactive oxygen species (ROS) production was determined by staining cells with 2 μM dihydroethidine (DHE; Molecular Probes) and flow cytometry analysis.

[3] = test system: dCK phosphorylated at Ser-74 in CLL cells; assay: Western blot of dCK phosphorylation at Ser-74; format: cell-based, human
[4] = test system: p73 in CLL cells; assay: p73 mRNA (real time RT-PCR) and TAp73 protein levels; format: cell-based, human; details: all CLL cases analyzed
Method: Cells were lysed for 15 min in RIPA buffer supplemented with protease and phosphatase inhibitors (leupeptine 10 μg/ml, apoprotinine 10 μg/ml, 1 μM PMSF, 1 μM sodium ortovanadate, 1 μM NaF, 2 μM sodium pyrophosphate decahydrate (Sigma)). Total cellular proteins were separated by SDS-PAGE under reducing conditions and transferred to Immobilon-P (Millipore) membranes. […] Equal protein loading was confirmed with β-actin or α-tubulin expression and relative protein quantification was done with Image Gauge Fujifilm software (Fuji). […] The expression levels of p73 and Mcl-1 were determined in an ABI Prism 7900HT Sequence Detection System (Applied Biosystems, Foster City, Calif.) using pre-designed Assay-on-demand (Applied Biosystems). The relative expression of each gene was quantified by the comparative cycle threshold (Ct) method (ΔΔCt), using GUS as an endogenous control. mRNA expression levels were given as arbitrary quantitative PCR units, taking as a calibrator the control sample (untreated) of each case.

[5] = test system: p53 in CLL cells; assay: p53 protein stabilization by immunoblotting; format: cell-based, human; details: CLL cases with no 17p deletion
[6] = test system: FOXO1 and FOXO3a in CLL cells; assay: FOXO1 and FOXO3a levels by immunoblotting; format: cell-based, human; details: CLL cells treated with forodesine
[7] = test system: caspase-9, -8 and -3 in CLL cells; assay: Caspase activation by immunoblotting; format: cell-based, human; details: as early as 10 hours of forodesine treatment
[8] = Gandhi et al. 2005; Korycka et al. 2007; cited from earlier work
[9] = test system: ROS in CLL primary cells; assay: Reactive oxygen species production (dihydroethidine staining, flow cytometry); format: cell-based, human; details: for effect of pre-incubation on ROS production induced by forodesine: ROS scavenger pre-incubation
Method: as §1

[10] = test system: BID in CLL cells; assay: BID processing by immunoblotting; format: cell-based, human; details: forodesine treatment
[11] = test system: BIM in CLL cells; assay: BIM protein levels by immunoblotting; format: cell-based, human; details: forodesine treatment
[12] = test system: intracellular dGTP in CLL primary cells; assay: Measurement of intracellular dGTP levels (DNA polymerase assay); format: cell-based, human; details: forodesine 2 μM and dGuo 10 μM; 26 CLL patients; 18 hours
Method: 15×10^6 of CLL primary cells were incubated with or without forodesine (2 μM) and dGuo (10 μM) or fludarabine (1 μg/ml) for 18 hours and the nucleotides were extracted with 60% methanol and intracellular dGTP levels were quantified by DNA polymerase assay as modified by Sherman and Fyfe (Sherman et al., Anal Biochem, 180(2), 222-226 (1989)). Data were expressed in fold induction of intracellular dGTP levels respect of control cells. In parallel, cell viability at 24 and 48 hours were also evaluated.

[13] = test system: BCL-2 in CLL cells; assay: BCL-2 protein levels by immunoblotting; format: cell-based, human; details: forodesine treatment
[14] = test system: MCL-1 in CLL cells; assay: MCL-1 protein levels by immunoblotting; format: cell-based, human; details: forodesine treatment
[15] = test system: XIAP and survivin in CLL cells; assay: XIAP and survivin levels by immunoblotting; format: cell-based, human; details: forodesine treatment
[16] = test system: BAX and BAK in CLL cells; assay: BAX and BAK activation by flow cytometry (conformational change); format: cell-based, human; details: incubation of CLL cells with forodesine
[17] = caspase-8 inhibitor pre-incubation

Compound: CC[C@H](C)[C@H](NC(=O)OCc1ccccc1)C(=O)N[C@@H](CCC(=O)OC)C(=O)N[C@H](C(=O)N[C@@H](CC(=O)OC)C(=O)CF)[C@@H](C)O (racemic) [z-IETD.fmk, Z-Ile-Glu(OMe)Thr-DL-Asp (OMe)-fluoromethylketone]
- effect on forodesine apoptosis induction (Annexin V staining) [1, 17]: partially blocked
- reversion of ΔΨm loss induced by forodesine [2, 17]: more pronounced

Compound: Cl.Cn1c(CCCC(=O)O)nc2cc(N(CCCl)CCCl)ccc21 [Bendamustine]
- phosphorylated form (at Ser-74) of dCK [3]: not exerted

Compound: Nc1nc(F)nc2c1ncn2[C@@H]1O[C@H](CO)[C@@H](O)[C@@H]1O [Fludarabine]
- mean cytotoxicity [1]: 25.1±13%
- mean cytotoxicity as single agents [1]: 50.6±11%

Compound: Cl.O=c1[nH]cnc2c([C@@H]3N[C@H](CO)[C@@H](O)[C@H]3O)c[nH]c12 [Forodesine]
- cytotoxic effect of agent alone [1]: did not induce a cytotoxic effect
- share of cases with cytotoxic effect between 40-60% [1]: 41.8%
- response of p53 deleted CLL cases ([1]; 11 CLL patients with 17p deletions, Forodesine 2 μM+dGuo 20 μM, 48 hours): high response
- response in samples with no or low in vitro response to bendamustine 25 μM and/or fludarabine 1 μg/ml ([1]; 12 of 32 CLL patient samples): high response
- mean cytoxicity ([1]; CLL cells with high levels of ZAP-70, 22 CLL patients): 57.9%±12
- mean cytoxicity with respect to control ([1]; CLL cells with low levels of ZAP-70, 17 CLL patients): 58.1%±11
- response of CLL cells with low or no sensitivity to Bendamustine or Fludarabine ([1]; Forodesine 2 μM and dGuo 10-20 μM): good response
- cell death (Annexin-V+ staining) ([1]; forodesine 2-5-10 μM with dGuo 10-20 or 30 μM, 48 hours): induced cell death
- response in CLL cells with 13q deletion, 11q deletion and 17p deletion ([1]; forodesine-induced cytotoxicity): good response
- cell death, CLL fresh samples ([1]; n=10, 48 hours): 56.6%±6.4
- cell death, cryopreserved primary CLL samples ([1]; n=32, 48 hours): 58.3%±11
- p73 mRNA and TAp73 protein levels [4]: clear up-regulation
- p53 protein [5]: induce stabilization of p53 protein
- FOXO1 and FOXO3a levels [6]: induced an increase in both, FOXO1 and FOXO3a
- activation of caspase-9, -8 and -3 (processing of pro-inactive form) [7]: dose- and time-dependent activation
- toxicity profile [8]: low toxicity profile
- ROS production ([9]; CLL primary cells, evident after 10 hours): induced the production of ROS
- phosphorylated form (at Ser-74) of dCK ([3]; western blot in CLL cells): increase in the phosphorylated form
- BID protein [10]: induced a decreased of BH3-only protein BID
- BIM protein levels [11]: induced an increase
- increase in intracellular dGTP levels with respect to control basal levels [12]: up to 96 times fold increase
- BCL-2 protein levels [13]: not affected
- MCL-1 protein levels [14]: considerably decreased
- mitochondrial transmembrane potential (Δψm) ([2]; early times, evident after 10 hours): induced loss of mitochondrial transmembrane potential
- XIAP and survivin levels [15]: decrease of the inhibitors of apoptosis XIAP and survivin
- activation of BAX and BAK [16]: induced the conformational change of BAX and BAK

Compound: CCOC(=O)CNC(=O)[C@H](CS)NC(=O)CC[C@H](N)C(=O)O [GSH, glutathione-reduced ethyl ester]
- effect of pre-incubation on ROS production induced by forodesine [9]: moderated
- effect of pre-incubation on Δψm loss induced by forodesine [2]: reduced Δψm loss

Compound: CC(=O)N[C@@H](CS)C(=O)O [NAC, N-acetyl-L-cysteine]
- effect of pre-incubation on ROS production induced by forodesine [9]: practically reverted ROS production
- effect of pre-incubation on Δψm loss induced by forodesine [2]: reduced Δψm loss

Compound: O=S(=O)(O)c1cc(O)c(O)c(S(=O)(=O)O)c1 [Tiron, 4,5-Dihydroxy-1,3-Benzene-disulfonic acid]
- effect of pre-incubation on ROS production induced by forodesine [9]: practically reverted ROS production
- effect of pre-incubation on Δψm loss induced by forodesine [2]: reduced Δψm loss

Compound: Nc1nc2c(ncn2[C@H]2C[C@H](O)[C@@H](CO)O2)c(=O)[nH]1 [dGuo, deoxyguanosine]
- cytotoxic effect of agent alone [1]: did not induce a cytotoxic effect

Compound: Nc1ccn([C@H]2C[C@H](O)[C@@H](CO)O2)c(=O)n1 [deoxycytidine, 2′-deoxycytidine]
- effect of pre-incubation on forodesine-induced cell death ([1]; deoxycytidine 5-10 μM): inhibited forodesine-induced cell death
- effect on cell death induced by bendamustine ([1]; deoxycytidine pre-incubation): not reverted
- effect on loss of cell viability induced by fludarabine ([1]; deoxycytidine pre-incubation): reverted the loss of cell viability

Compound: COC(=O)C[C@H](NC(=O)[C@H](C)NC(=O)[C@@H](NC(=O)OCc1ccccc1)C(C)C)C(=O)CF [z-VAD.fmk, benzyloxy-carbonyl-Val-Ala-Asp-fluoro-methylketone] (Cbz-Val-Ala-Asp(OMe)-CH2F)
- effect on phosphatidylserine exposure after forodesine treatment ([1]; broad range caspase inhibitor pre-incubation, forodesine 24 hours): partially reduced phospatidylserine exposure

Compound: Rituximab
- cell death ([1]; single agent or combined with forodesine, 24 hours): low
